From PubChem BioAssay AID540323 (Johns Hopkins Ion Channel Center, 2011)
Active and inactive are the calls of the source.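 The calls were made as follows: active = peak hERG channel inhibition above 30% at some tested dose, together with a fitted dose response curve; inactive = no hERG inhibition at any dose, or no curve.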

Target: Voltage-gated inwardly rectifying potassium channel KCNH2 (Homo sapiens) (UniProt Q12809)
Experiment: KCNH2 potassium channel blockade – FluxOR Tl flux, hERG cells, CRC 2, selectivity assay for KCNK9 inhibitor project, SAR follow-up (AID 540323)
Settings: hERG-expressing cells, FluxOR thallium flux fluorescence; at 30 µM (top of the series); test wells contain dofetilide at its IC70

Sequence of Voltage-gated inwardly rectifying potassium channel KCNH2 (Homo sapiens) (Q12809 whole entry, looked up): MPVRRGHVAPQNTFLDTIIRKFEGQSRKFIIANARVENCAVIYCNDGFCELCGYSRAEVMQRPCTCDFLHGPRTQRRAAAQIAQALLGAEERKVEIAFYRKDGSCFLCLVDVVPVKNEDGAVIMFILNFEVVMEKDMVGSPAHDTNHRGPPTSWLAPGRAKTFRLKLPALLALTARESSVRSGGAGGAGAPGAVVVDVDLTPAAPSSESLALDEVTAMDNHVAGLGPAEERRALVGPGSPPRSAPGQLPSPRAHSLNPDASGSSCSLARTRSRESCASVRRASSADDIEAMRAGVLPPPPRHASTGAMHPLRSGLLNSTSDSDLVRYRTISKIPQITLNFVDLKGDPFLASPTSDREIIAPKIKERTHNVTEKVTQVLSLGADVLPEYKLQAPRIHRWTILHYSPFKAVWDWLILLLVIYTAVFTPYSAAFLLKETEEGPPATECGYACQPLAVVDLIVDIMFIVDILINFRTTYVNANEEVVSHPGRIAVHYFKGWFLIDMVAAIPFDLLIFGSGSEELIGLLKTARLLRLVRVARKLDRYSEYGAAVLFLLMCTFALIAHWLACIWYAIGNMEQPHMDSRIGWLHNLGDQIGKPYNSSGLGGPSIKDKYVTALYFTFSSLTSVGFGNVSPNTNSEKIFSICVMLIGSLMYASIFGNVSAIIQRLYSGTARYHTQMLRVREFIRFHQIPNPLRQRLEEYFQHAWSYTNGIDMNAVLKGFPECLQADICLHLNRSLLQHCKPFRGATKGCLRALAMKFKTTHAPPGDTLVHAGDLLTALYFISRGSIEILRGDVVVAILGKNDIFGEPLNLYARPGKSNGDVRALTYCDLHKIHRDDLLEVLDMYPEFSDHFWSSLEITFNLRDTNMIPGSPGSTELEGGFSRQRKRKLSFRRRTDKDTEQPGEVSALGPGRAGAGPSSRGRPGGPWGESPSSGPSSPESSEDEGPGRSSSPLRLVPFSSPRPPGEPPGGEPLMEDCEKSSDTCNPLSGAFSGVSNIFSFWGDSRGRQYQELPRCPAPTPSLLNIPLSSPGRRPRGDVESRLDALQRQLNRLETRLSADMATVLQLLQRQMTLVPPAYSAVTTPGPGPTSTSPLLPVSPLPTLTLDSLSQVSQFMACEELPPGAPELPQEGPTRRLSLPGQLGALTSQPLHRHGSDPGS

SMILES | fluorescence ratio, lower = inhibition
COc1ccccc1NC(=O)c1cccc(NC(=O)C2CCCCC2)c1 | inactive
S=c1[nH]nc(-c2ccco2)n1CC1CCCCC1 | inactive
O=C(Nc1cccc(NC(=O)c2ccco2)c1)c1ccccc1 | inactive
Cc1cccc(C(=O)Nc2cccc(NC(=O)c3ccc(Cl)cc3)c2)c1 | inactive
CCOc1ccccc1C(=O)Nc1cccc(NC(=O)c2ccccc2C(F)(F)F)c1 | inactive
CC(C1CC2CCC1C2)n1c(-c2ccco2)n[nH]c1=S (stereo not drawn) | inactive
CCOc1ccccc1NC(=O)c1cccc(NC(=O)c2ccccc2OC)c1 | inactive
COc1ccccc1C(=O)Nc1cccc(NC(=O)c2ccccc2)c1 | inactive
Cc1cccc(C(=O)Nc2cccc(NC(=O)C3CCCCC3)c2)c1 | inactive
COc1cccc(C(=O)Nc2cccc(NC(=O)c3ccccc3)c2)c1 | inactive
Cc1cccc(C(=O)Nc2cccc(NC(=O)c3ccccc3C)c2)c1 | inactive
Cc1cccc(C(=O)Nc2cccc(NC(=O)c3ccco3)c2)c1 | inactive
O=C(Nc1ccccc1Cl)c1cccc(NC(=O)C2CCCC2)c1 | inactive
COc1ccccc1NC(=O)c1cccc(NC(=O)c2ccccc2C(F)(F)F)c1 | inactive
COc1cccc(-c2n[nH]c(=S)n2C(C)C2CC3CCC2C3)c1 (stereo not drawn) | inactive
O=C(Nc1cccc(NC(=O)c2cccc(Cl)c2)c1)c1ccccc1 | inactive
COc1ccc(-c2n[nH]c(=S)n2C(C)C2CC3CCC2C3)cc1 (stereo not drawn) | inactive
Cc1ccc(C(=O)Nc2cccc(NC(=O)c3ccccc3)c2)cc1 | inactive
CCOc1ccccc1NC(=O)c1cccc(NC(=O)C(C)(C)C)c1 | inactive
O=C(Nc1cccc(NC(=O)c2ccccc2C(F)(F)F)c1)c1ccccc1 | inactive
Cc1cccc(C(=O)Nc2cccc(NC(=O)c3ccccc3C(F)(F)F)c2)c1 | inactive
CCOc1ccccc1NC(=O)c1cccc(C(=O)NC2CCCC2)c1 | inactive
O=C(Nc1cccc(NC(=O)c2cccs2)c1)c1ccccc1 | inactive

SMILES | fluorescence ratio, lower = inhibition
CCOc1ccccc1NC(=O)c1cccc(NC(=O)c2cccc(C(F)(F)F)c2)c1 | inactive
O=C(Nc1cccc(NC(=O)c2ccccc2)c1)c1ccccc1 | inactive
CCOc1ccccc1NC(=O)c1cccc(NC(=O)c2cccc(OC)c2)c1 | inactive
COc1ccccc1C(=O)Nc1cccc(NC(=O)c2ccccc2OC(F)(F)F)c1 | inactive
Cc1cccc(-c2n[nH]c(=S)n2C(C)C2CC3CCC2C3)c1 (stereo not drawn) | inactive
COc1ccc(C(=O)Nc2cccc(NC(=O)c3cccc(C)c3)c2)cc1 | inactive
CCOc1ccccc1NC(=O)c1cccc(NC(=O)C2CC2)c1 | inactive
CCOc1ccccc1NC(=O)c1cccc(NC(=O)c2ccccc2Cl)c1 | inactive
COc1cccc(C(=O)Nc2cccc(NC(=O)c3cccc(C)c3)c2)c1 | inactive
COc1cccc(OC)c1C(=O)Nc1cccc(NC(=O)c2cccc(C)c2)c1 | inactive
O=C(Nc1cccc(NC(=O)c2cccc(F)c2)c1)c1ccccc1 | inactive
Cc1cccc(C(=O)Nc2ccccc2NC(=O)c2ccccc2)c1 | inactive
CCOc1ccccc1NC(=O)c1cccc(NC(=O)c2ccccc2OC(F)(F)F)c1 | inactive
O=C(Nc1cccc(NC(=O)c2ccccc2Cl)c1)c1ccccc1 | inactive
Cc1cccc(C(=O)Nc2cccc(NC(=O)c3ccccc3OCC(C)C)c2)c1 | inactive
O=C(Nc1cccc(NC(=O)c2ccc(Cl)cc2)c1)c1ccccc1 | inactive
O=C(Nc1cccc(NC(=O)c2cccc(C(F)(F)F)c2)c1)c1ccccc1 | inactive
Cc1cccc(S(=O)(=O)Nc2cccc(NC(=O)c3ccccc3)c2)c1 | inactive
CC(C1CC2CCC1C2)n1c(-c2ccccc2Cl)n[nH]c1=S (stereo not drawn) | inactive
CCOc1ccccc1NC(=O)c1cccc(NC(=O)c2ccc(Cl)cc2)c1 | inactive
CCOc1ccccc1NC(=O)c1cccc(NC(=O)c2ccc(C)cc2)c1 | inactive
O=C(Nc1cccc(NC(=O)c2ccccn2)c1)c1ccccc1 | inactive
CC(C1CC2CCC1C2)n1c(-c2cccc(Cl)c2)n[nH]c1=S (stereo not drawn) | inactive

SMILES | fluorescence ratio, lower = inhibition
CC(c1ccccc1)n1c(-c2ccco2)n[nH]c1=S (stereo not drawn) | inactive
Cc1ccccc1C(=O)Nc1cccc(NC(=O)c2ccccc2)c1 | inactive
CN(C)c1ccc(C(=O)Nc2cccc(NC(=O)c3ccccc3)c2)cc1 | inactive
COc1ccccc1NC(=O)c1cccc(NC(=O)c2ccccc2OC)c1 | inactive
CCOc1ccccc1C(=O)Nc1cccc(NC(=O)c2cccc(C)c2)c1 | inactive
COc1ccccc1C(=O)Nc1cccc(NC(=O)c2ccccc2OC)c1 | inactive
CC(c1ccco1)n1c(-c2ccoc2)n[nH]c1=S (stereo not drawn) | inactive
CC(C1CC2CCC1C2)n1c(-c2ccsc2)n[nH]c1=S (stereo not drawn) | inactive
COc1ccc(C(=O)Nc2cccc(NC(=O)c3ccccc3)c2)cc1 | inactive
O=C(Nc1cccc(NC(=O)c2ccncc2)c1)c1ccccc1 | inactive
CC(C1CC2CCC1C2)n1c(-c2ccc(Cl)cc2)n[nH]c1=S (stereo not drawn) | inactive
Cc1cccc(C(=O)Nc2cccc(NC(=O)c3ccccc3C(C)C)c2)c1 | inactive
CCOc1ccccc1NC(=O)c1cccc(NC(=O)c2cccc(C)c2)c1 | inactive
CCOc1ccccc1NC(=O)c1cccc(NC(=O)c2ccccc2C)c1 | inactive
CCOc1ccc(NC(=O)c2cccc(NC(=O)C3CCCC3)c2)cc1 | inactive
CC(C)n1c(-c2ccco2)n[nH]c1=S | inactive
Cc1cccc(C(=O)Nc2cccc(NC(=O)c3ccncc3)c2)c1 | inactive
Cc1cccc(C(=O)Nc2cccc(NC(=O)c3ccccc3OC(F)(F)F)c2)c1 | inactive
CCOc1ccccc1NC(=O)c1cccc(NC(=O)c2ccccc2C(F)(F)F)c1 | inactive
COc1ccccc1NC(=O)c1cccc(NC(=O)c2ccccc2)c1 | inactive
COc1ccccc1NC(=O)c1cccc(NC(=O)CC2CCCC2)c1 | inactive
O=C(Nc1cccc(NC(=O)c2cccnc2)c1)c1ccccc1 | inactive
Cc1cccc(C(=O)Nc2cccc(NC(=O)c3ccc(C(F)(F)F)cc3)c2)c1 | inactive

SMILES | fluorescence ratio, lower = inhibition
COc1ccccc1-c1n[nH]c(=S)n1C(C)C1CC2CCC1C2 (stereo not drawn) | inactive
Cc1cccc(C(=O)Nc2cccc(NC(=O)c3cccc(C(F)(F)F)c3)c2)c1 | inactive
CCOc1ccccc1NC(=O)c1cccc(NC(=O)c2ccc(OC)cc2)c1 | inactive
Cc1cccc(C(=O)Nc2cccc(NC(=O)c3ccc(N(C)C)cc3)c2)c1 | inactive
COc1ccccc1C(=O)Nc1cccc(NC(=O)c2cccc(C)c2)c1 | inactive
Cc1ccc(-c2n[nH]c(=S)n2C(C)C2CC3CCC2C3)cc1 (stereo not drawn) | inactive
CC(C1CC2CCC1C2)n1c(-c2ccccc2)n[nH]c1=S (stereo not drawn) | inactive
Cc1cccc(C(=O)Nc2cccc(NC(=O)c3ccccc3Cl)c2)c1 | inactive
O=C(Nc1cccc(NC(=O)C2CCCCC2)c1)c1ccccc1 | inactive
CCOc1ccccc1NC(=O)c1cccc(NC(=O)C2CCOC2)c1 (stereo not drawn) | inactive
COc1ccccc1C(=O)Nc1cccc(NC(=O)c2ccccc2C)c1 | inactive
O=C(Nc1cccc(NC(=O)c2ccc(C(F)(F)F)cc2)c1)c1ccccc1 | inactive
CCOc1ccccc1C(=O)Nc1cccc(NC(=O)C2CCCC2)c1 | inactive
CCOc1ccccc1NC(=O)c1cccc(NC(=O)CC2CCCCC2)c1 | inactive
CCOc1ccccc1NC(=O)c1cccc(NC(=O)c2cccc(Cl)c2)c1 | inactive
O=C(Nc1cccc(NC(=O)c2ccoc2)c1)c1ccccc1 | inactive
COc1ccccc1C(=O)Nc1cccc(NC(=O)c2ccccc2C(C)C)c1 | inactive
Cc1cccc(C(=O)Nc2cccc(NC(=O)c3cccs3)c2)c1 | inactive
CCOc1ccccc1NC(=O)c1cccc(NC(=O)C2CCCC2)c1 | inactive
O=C(Nc1cccc(NC(=O)c2ccsc2)c1)c1ccccc1 | inactive
CCOc1ccccc1NC(=O)c1cccc(NC(=O)c2ccc(C(F)(F)F)cc2)c1 | inactive
CCOc1ccccc1NC(=O)c1cccc(NC(=O)c2ccccc2)c1 | inactive
Cc1ccccc1-c1n[nH]c(=S)n1C(C)C1CC2CCC1C2 (stereo not drawn) | inactive

Same assay, conditions: hERG-expressing cells, FluxOR thallium flux fluorescence; test wells contain dofetilide at its IC70

SMILES | IC50
Cc1cccc(C(=O)Nc2cccc(NC(=O)c3cccc(C)c3)c2)c1 | 12.4 µM
